We go through six compounds from patent US20090082314A1, “Targeting Prodrugs for the Treatment of Gastrointestinal Diseases” (The Provost Fellows and Scholars of the College of the, priority 2007, published 2009).

For data set [1] the following is noted: rat intestinal perfusate; cited from earlier work.
The conditions of data set [2]: after 24 h at pH 7 (45° C.); cited from earlier work.
Data set [3] is described as follows: Intramolecular lactamization (cyclization) kinetics of amino prodrugs in aqueous solution, HPLC. Type of data set: physicochemical. The note with it: 37° C., pH not given, read-out: calculated half-life of lactamization (T1/2=0.693/kobs) (converted). On the procedure:
Release of steroid in vivo from the prodrugs hinges upon the cyclization of the amino steroid product of azo-reductase activity. The cyclization rates of the amino derivatives of cortisone A and B were monitored in aqueous solution at various pH values and at 37° C. by measuring remaining compound by HPLC along with the evolution of cortisone.
The first order rate constant for disappearance can be obtained from a plot of the natural log of remaining ester versus time. The half-life can be calculated (T1/2=0.693/kobs).

Another data set concerns DSS-induced colitis mice. Nature of the data set: Drug efficacy in DSS-induced colitis mice (body weight loss, DAI, colon length). The data set is classed as in vivo, BALB/c mice. The note with it: for body weight loss versus vehicle only controls / severity of disease (DAI score) versus vehicle alone / colon shortening versus vehicle alone: 5 mg/Kg oral twice a day, 5% DSS; for body weight loss versus vehicle only controls: FIG. 15, one-way ANOVA with Tukey post test; for severity of disease (DAI score) versus vehicle alone: FIG. 16, one-way ANOVA with Tukey post test; for colon shortening versus vehicle alone: FIG. 17, one-way ANOVA with Tukey post test. How it is done: BALB/c strain mice were from the Bioresources Unit (Trinity College Dublin). Mice were housed in individually ventilated and filtered cages under positive pressure (Tecniplast, Nothants, UK). Food and water were supplied ad libitum. All animal experiments were performed in compliance with Irish Department of Health and Children regulations and approved by the Trinity College Bioresources ethical review board.
All in vivo experiments were performed with six mice per group. […] Colitis scores were analyzed by Mann-Whitney test. P values <0.05 were considered significant. Results on the DIA, C/B and T/B MPO were expressed as means±S.E.
DSS ([…]; MP Biomedicals, OH) was dissolved in the drinking water of the mice. Fresh DSS solution was provided every second day. BALB/c mice were exposed to 5% DSS for six days. The mice were checked every day for morbidity and weight recorded. Induction of colitis was determined by weight loss, fecal blood and, upon autopsy, length of colon. Blood in feces was detected using a Hemdetect occult blood detection kit (Dipro, Austria).
To quantify induction of colitis, a disease activity index (DAI) was determined based on previous studies of DSS-induced colitis (Cooper 1993). DAI was calculated for each mouse daily based on body weight loss, occult blood and stool consistency/diarrhea. A score of […] was given for each parameter, with a maximum DAI score of 12. Score 0, No weight loss, normal stool, no blood; Score 1, 1-3% weight loss; Score 2, 3-6% weight loss, loose stool, blood visible in stool; Score 3, 6-9% weight loss; Score 4, […]. Loose stool was defined as the formation of a stool that readily becomes paste upon handling. Diarrhea was defined as no stool formation. Gross bleeding was defined as fresh blood on fur around the anus with extensive blood in the stool,
At autopsy the length of the colon was measured and a 1 cm section of colon was fixed in 10% formaldehyde-saline. H&E-stained sections were grading based on a scoring system modified from a previous study (Siegmund 2001). Histology scoring was performed in a blinded fashion. A combined score of inflammatory cell infiltration and tissue damage was determined as follows: Cell infiltration: Score 0, Occasional inflammatory cells in the LP; 1, Increased infiltrate in the LP predominantly at the base of crypts; 2, Confluence of inflammatory infiltrate extending into the mucosa; 3, Trans-mural extension of infiltrate. Tissue Damage Score 0, No mucosal damage; 1, Partial (up to 50%) loss of crypts in large areas; 2, Partial to total 50-100% loss of crypts in large areas, epithelium intact; 3, Total loss of crypts in large areas and epithelium lost.
The DSS induced colitis mice weighting about 18-20 grams were allowed 5% DSS water ad libitum and 100 μL of prednisolone and prodrug 2 in 1% solution cremophor and ethanol in water suspension (equivalent to 5 mg of prednisolone per Kg or mouse body weight) was orally administrated, twice a day (every twelve hours) to the colitis mice. Six days after the prednisolone and prodrugs treatments, the mice were sacrificed by cervical dislocation. The distal colon segment and the thymus were removed and washed to remove contents of the colon.
One centimetre of the distal colon segment and the fresh weight of the thymus were measured to obtain the ratios of distal colon weight and thymus weight to body weight (C/B and T/B respectively). The damage of the colon specimens were scored as describe in materials and methods. The distal segments were frozen by liquid nitrogen kept at −80° C. until assayed for myeloperoxidase activity (MPO).
Anti-inflammatory effects were studied by comparison of the distal colon length between healthy mice, untreated mice, prednisolone treated mice and prodrug treated mice. IBD causes shortering of the colon. […]

The next data set relates to thymus. Nature of the data set: Systemic side effects: thymus weight to body weight ratio in DSS-induced colitis mice. The data set is classed as in vivo, BALB/c mice. The note with it: for T/BW ratio (thymus weight:body weight) versus vehicle-treated mice: 5 mg/Kg oral twice a day, 5% DSS, FIG. 18, one-way ANOVA with Tukey post test. How it is done:
The DSS induced colitis mice weighting about 18-20 grams were allowed 5% DSS water ad libitum and 100 μL of prednisolone and prodrug 2 in 1% solution cremophor and ethanol in water suspension (equivalent to 5 mg of prednisolone per Kg or mouse body weight) was orally administrated, twice a day (every twelve hours) to the colitis mice. Six days after the prednisolone and prodrugs treatments, the mice were sacrificed by cervical dislocation. The distal colon segment and the thymus were removed and washed to remove contents of the colon. One centimetre of the distal colon segment and the fresh weight of the thymus were measured to obtain the ratios of distal colon weight and thymus weight to body weight (C/B and T/B respectively). The damage of the colon specimens were scored as describe in materials and methods. The distal segments were frozen by liquid nitrogen kept at −80° C. until assayed for myeloperoxidase activity (MPO). Systemic side effects were study by comparison of the thymus weight and body weight ratio (Hideki Yano 2002) between health mice, untreated mice, prednisolone treated mice and prodrug treated mice, due to the fact that an increase on the concentration of steroid in the bloodstream provokes suppression on the activity of the thymus and the consequent reduction of its weight.

For data set [4] the following is noted: neutrality, 39° C.; cited from earlier work.
The mark [5] stands for this setting: 5 mg/Kg, Student's t-test, original analysis.

Regarding `C[C@]12CCC(=O)C=C1CC[C@@H]1[C@@H]2[C@@H](O)C[C@@]2(C)[C@H]1CC[C@]2(O)C(=O)COC(=O)CCC(=O)O` [hydrocortisone-21-succinate], in data set [1], the “first-order rate constant for hydrolysis” value is 0.003 min⁻¹. For the same compound, the disappearance result in data set [2] is “less than 5%”.
In the case of `CC12CCC(=O)C=C1CCC1C2C(O)CC2(C)C1CCC2(O)C(=O)COC(=O)Cc1ccccc1N` (stereo not drawn) [prodrug A], in data set [3], the half-life is 2.2 h.
Turning to `C[C@]12C=CC(=O)C=C1CC[C@@H]1[C@@H]2[C@@H](O)C[C@@]2(C)[C@H]1CC[C@]2(O)C(=O)CO` [Prednisolone], in the data set with DSS-induced colitis mice, the “body weight loss versus vehicle only controls” value is “weight loss was decreased”, the “severity of disease (DAI score) versus vehicle alone” value is given as “significantly reduced” and the “colon shortening versus vehicle alone” value is given as “significantly less shortening”. The “T/BW ratio (thymus weight:body weight) versus vehicle-treated mice” value with thymus is on record as “significant reduction in T/BW ratio”. Besides, the “thymus:BW ratio versus Untreated mice” value in the data set with thymus (setting [5]) is “significant reduction in thymus:BW ratio”.
On to `CC12C=CC(=O)C=C1CCC1C2C(O)CC2(C)C1CCC2(O)C(=O)COC(=O)CCc1ccccc1/N=N/c1ccc(O)c(C(=O)O)c1` (stereo not drawn) [Mutual Prodrug 2, 5-(2-{2[2-(11,17-dihydroxy-10,13-dimethyl-10,13-dimethyl-3-oxo-6,7,8,9,10,11,12,13,14,15,16,17-dodecahydro-3H-cyclopenta[a]phenanthrene-17-yl)-2-oxo-ethoxycarbonyl]ethyl}-phenylazo}-2-hydroxy-benzoic acid], for which, in the data set with DSS-induced colitis mice, the “body weight loss versus vehicle only controls” value is reported as “weight loss was decreased”, the “severity of disease (DAI score) versus vehicle alone” value is given as “significantly reduced” and the “colon shortening versus vehicle alone” value is reported as “significantly less shortening”. The colon length result in the data set on DSS-induced colitis mice (setting [5]) is recorded as “significantly longer colon than the PRED”. Further, in the data set with thymus, the “T/BW ratio (thymus weight:body weight) versus vehicle-treated mice” value is on record as “not statistically different”.
Take `COC(=O)CCc1ccccc1N` [methyl 3-(2-aminophenyl)propionate]: the “apparent first-order rate constant of spontaneous cyclization” value in data set [4] was 0.0002 s⁻¹.
As to `CC12CCC(=O)C=C1CCC1C2C(O)CC2(C)C1CCC2(O)C(=O)COC(=O)CCc1ccccc1N` (stereo not drawn) [prodrug B], the half-life in data set [3] is 1.4 h.
